Results as given in patent US9072774B2, “Porphyrin nanovesicles” (UNIVERSITY HEALTH NETWORK, priority 2009, dated 2015).

Test: Differential scanning calorimetry
Format: physicochemical
Settings: 5 mg/ml in PBS, scan rate 1° C./min
Protocol: Samples were placed in a vacuum for 30 min prior to measurement. A scan rate of 1° C./min was used for all samples. PBS was used as the reference and one scan cycle of PBS was used as the baseline. For each lipid, three cooling and heating scans were performed and the results averaged to determine the phase transition temperature of the lipids.

**Q.** With `CCCCCCCCCCCCCC(=O)OC[C@H](COP(=O)([O-])OCC[N+](C)(C)C)OC(=O)CCCCCCCCCCCCC` [DMPC] as the molecule, how does the transition temperature read?
**A.** 24 °C
